Reference: patent US20250092081A1, “USE OF GLYCOSYLTRASNFERASE INHIBITORS FOR TREATING CANCER” (CALIFORNIA INSTITUTE OF TECHNOLOGY, priority 2020, published 2025)

Assays:
[1] = Cytotoxicity MTT assay, SK-OV-3; type: cell-based; settings: human, SK-OV-3 cells
Method: (§1) Selected molecules were tested for cytotoxicity (IC50) in cancer and healthy cells via a MTT colorimetric assay.
(§2) Each cell was cultured in recommended medium by ATCC, and the IC50 data were obtained with each cell line.

[2] = tested on: C. difficile; test: Antibacterial activity (FIG. 4), C. difficile; type: cell-based
[3] = molecular target: MraY (Escherichia coli (strain K12), UniProt P0A6W3); test: MraY assay; type: biochemical; settings: relative to FR-900493 (1)
[4] = Cytotoxicity MTT assay, LoVo; type: cell-based; settings: human, LoVo cells
Method: as §1, §2

[5] = Cytotoxicity MTT assay, AsPc-1; type: cell-based; settings: human, AsPc-1 cells
Method: as §1, §2

[6] = Cytotoxicity MTT assay, KB; type: cell-based; settings: human, KB cells
Method: as §1, §2

[7] = tested on: MDA-MB-231 cells; test: Expression of tumor markers in MDA-MB-231 cells; type: cell-based; settings: 48 hours of exposure, FIG. 12
Text: It should be appreciated that MDA-MB-231 is a high DPAGT1 expressing, triple negative cell line. […] Erb2 (HER2), Erb3 (HER3), and Erb4 (HER4) are elevated.

[8] = tested on: Panc-1 cells; test: Boyden chamber migration assay, Panc-1; type: cell-based; settings: FIG. 7
[9] = molecular target: WecA (Escherichia coli (strain K12), UniProt P0AC78); test: WecA assay (Table 1); settings: relative to FR-900493 (1)
[10] = Cytotoxicity MTT assay, HPAF-II; type: cell-based; settings: human, HPAF-II cells
Method: as §1, §2

[11] = tested on: C. difficile spores; test: Spore viability testing; type: cell-based; settings: x2 MIC, 24 hours, CFU on taurocholate agar
[12] = tested on: patient-derived cell line (BCI-12); test: Animal model of Her2+ breast cancer (BCI-12 implanted); type: in vivo; settings: mice
Method: An animal model of Her2+ breast cancer was generated by implantation of cells of a patient-derived cell line (BCI-12) into mice. Said mice were treated with compound 11, with the therapeutic monoclonal antibody transtuzumab (TzMAb), or a combination of compound 11 and transtuzumab.

[13] = tested on: Vero cells; test: Cytotoxicity MTT assay, Vero cells; type: cell-based, monkey
[14] = Cytotoxicity MTT assay, HCT 116; type: cell-based; settings: human, HCT 116 cells
Method: as §1, §2

[15] = Cytotoxicity MTT assay, Panc-1; type: cell-based; settings: human, Panc-1 cells
Method: as §1, §2

[16] = tested on: AsPc-1 cells; test: Scratch (wound healing) assay, AsPc-1; type: cell-based; settings: FIG. 9
[17] = Water solubility; type: physicochemical; settings: 11 relative to 10
[18] = Cytotoxicity MTT assay, L12210; type: cell-based; settings: mouse, L12210 cells
Method: as §1, §2

[19] = tested on: sheep blood; test: Hemolysis of sheep blood; type: cell-based; settings: Ovis aries
[20] = tested on: MDA-MB-231 cells; test: Animal model of triple negative breast cancer (MDA-MB-231 implanted); type: in vivo; settings: mice, MDA-MB-231, 10 mg/kg/day, FIG. 10
Method: An animal model of triple negative breast cancer was generated by implantation of MDA-MB-231 cells into mice. […] A second group of mice were treated with paclitaxel at 15 mg/kg.

[21] = Cytotoxicity MTT assay, MDA-MB-435S; type: cell-based; settings: human, MDA-MB-435S cells
Method: as §1, §2

[22] = tested on: AsPc-1 (pancreatic cancer) cells; test: Synergistic assay (checkerboard) on AsPc-1 cells; type: cell-based; settings: for IC50 A / IC50 B (drug alone): AsPc-1 cells
Method: Synergistic Assay. The synergistic or antagonistic activities of 11 with other cancer drugs on AsPc-1 (pancreatic cancer) cells were assessed in vitro via micro dilution broth checkerboard technique previously reported. The FIC index was calculated according to the following equation. ΣFIC=FICA+FICB=CA/MICA+CB/MICB where MICA and MICB are MIC of drugs A and B, CA and CB are the concentrations of drugs A and B used in combination. In these interaction studies, ΣFIC of less than 0.5 represents synergistic activity.
These experiments were performed in the same manner as those of Example 8.

Chain of MraY (P0A6W3 whole entry, looked up, species assumed): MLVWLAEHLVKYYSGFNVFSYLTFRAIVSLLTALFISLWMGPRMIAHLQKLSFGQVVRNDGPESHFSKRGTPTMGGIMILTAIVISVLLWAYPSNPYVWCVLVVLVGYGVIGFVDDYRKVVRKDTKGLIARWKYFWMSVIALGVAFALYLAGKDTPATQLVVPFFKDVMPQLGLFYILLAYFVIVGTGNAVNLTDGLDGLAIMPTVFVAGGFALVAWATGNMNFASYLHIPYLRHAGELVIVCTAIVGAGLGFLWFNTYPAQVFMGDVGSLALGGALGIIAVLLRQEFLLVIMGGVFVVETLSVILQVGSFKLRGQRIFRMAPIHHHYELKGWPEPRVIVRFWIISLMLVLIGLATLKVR
Chain of WecA (P0AC78 whole entry, looked up, species assumed): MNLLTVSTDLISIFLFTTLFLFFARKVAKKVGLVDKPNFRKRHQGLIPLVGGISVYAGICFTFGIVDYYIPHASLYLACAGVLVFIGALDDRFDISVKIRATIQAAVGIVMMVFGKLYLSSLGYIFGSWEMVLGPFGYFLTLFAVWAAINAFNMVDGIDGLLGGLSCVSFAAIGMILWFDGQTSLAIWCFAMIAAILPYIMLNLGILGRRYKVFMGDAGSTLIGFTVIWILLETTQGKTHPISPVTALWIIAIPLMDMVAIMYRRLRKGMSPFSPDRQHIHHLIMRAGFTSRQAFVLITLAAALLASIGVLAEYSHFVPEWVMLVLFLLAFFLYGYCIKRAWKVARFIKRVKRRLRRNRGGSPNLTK

NC[C@H]1O[C@@H](O[C@H]([C@H]2O[C@@H](n3ccc(=O)[nH]c3=O)[C@H](O)[C@@H]2O)[C@H](NCCCC(=O)NCc2ccc(N3CCC(Oc4ccc(C(F)(F)F)cc4)CC3)cc2)C(N)=O)[C@H](O)[C@@H]1O [Compound 11]
IC50 [1]: 2850 nM
antibacterial activity against C. difficile [2]: displayed antibacterial activity
MraY inhibitory activity, more significant than 1 [3]: > 300 times
IC50 [4]: 220 nM
IC50 [5]: 950 nM
IC50 [6]: 7090 nM
expression of DPAGT1 (RPKM Expression Value) [7]: sharply reduced
expression of EGFR (HER1) [7]: sharply reduced
expression of Erb2 (HER2) [7]: elevated
expression of Erb3 (HER3) [7]: elevated
expression of Erb4 (HER4) [7]: elevated
Panc-1 migratory cells [8]: fewer Panc-1 migratory cells than Gemcitabine, Taxol, and Tunicamycin
WecA inhibitory activity, more significant than 1 [9]: about 15 fold
IC50 [10]: < 98 nM
Viability of C. difficile spores [11]: caused loss of viability
effect compared with transtuzumab ([12]; BCI-12, FIG. 11): at least equivalent to transtuzumab
effect of combination of compound 11 and transtuzumab ([12]; BCI-12, about days 20 to 30 of treatment): Improved effects
cytotoxic effects on healthy, non-cancerous Vero cells [13]: little cytotoxic effects
IC50 [14]: 3540 nM
IC50 [15]: < 98 nM
AsPc-1 cell migration, scratch assay [16]: less AsPc-1 cell migration than Gemcitabine
water solubility greater than 10 [17]: 200 times
IC50 [18]: > 100000 nM
IC50 [19]: 206000 nM
effect compared with paclitaxel (15 mg/kg) [20]: at least equivalent to palctitaxel
IC50 [21]: 7090 nM
effect of combinations of 11 and Taxol ([22]; AsPc-1, all five combinations, FIC < 0.5): synergistic effect
effect of combination of 11 and Gemcitabine ([22]; AsPc-1, both combinations): synergistic effect
IC50 A / IC50 B (drug alone) ([22]; Table 5): 982 nM
IC50 A / IC50 B (drug alone) ([22]; Table 6): 980 nM
AsPc-1 cells dead/alive ([22]; Compound 11 0.0488281 μM + Gemcitabine 0.024414 μM): alive
AsPc-1 cells dead/alive ([22]; Compound 11 0.0488281 μM + Gemcitabine 0.048828 μM): alive
AsPc-1 cells dead/alive ([22]; Compound 11 0.0488281 μM + Gemcitabine 0.097656 μM): dead
AsPc-1 cells dead/alive ([22]; Compound 11 0.0488281 μM + Gemcitabine 0.195313 μM): dead
AsPc-1 cells dead/alive ([22]; Compound 11 0.0488281 μM + Gemcitabine 0.390625 μM): dead
AsPc-1 cells dead/alive ([22]; Compound 11 0.0976563 μM + Gemcitabine 0.024414 μM): alive
AsPc-1 cells dead/alive ([22]; Compound 11 0.0976563 μM + Gemcitabine 0.048828 μM): alive
AsPc-1 cells dead/alive ([22]; Compound 11 0.0976563 μM + Gemcitabine 0.097656 μM): dead
AsPc-1 cells dead/alive ([22]; Compound 11 0.0976563 μM + Gemcitabine 0.195313 μM): dead
AsPc-1 cells dead/alive ([22]; Compound 11 0.0976563 μM + Gemcitabine 0.390625 μM): dead
AsPc-1 cells dead/alive ([22]; Compound 11 0.1953125 μM + Gemcitabine 0.024414 μM): alive
AsPc-1 cells dead/alive ([22]; Compound 11 0.1953125 μM + Gemcitabine 0.048828 μM): alive
AsPc-1 cells dead/alive ([22]; Compound 11 0.1953125 μM + Gemcitabine 0.097656 μM): dead
AsPc-1 cells dead/alive ([22]; Compound 11 0.1953125 μM + Gemcitabine 0.195313 μM): dead
AsPc-1 cells dead/alive ([22]; Compound 11 0.1953125 μM + Gemcitabine 0.390625 μM): dead
AsPc-1 cells dead/alive ([22]; Compound 11 0.390625 μM + Gemcitabine 0.024414 μM): alive
AsPc-1 cells dead/alive ([22]; Compound 11 0.390625 μM + Gemcitabine 0.048828 μM): alive
AsPc-1 cells dead/alive ([22]; Compound 11 0.390625 μM + Gemcitabine 0.097656 μM): dead
AsPc-1 cells dead/alive ([22]; Compound 11 0.390625 μM + Gemcitabine 0.195313 μM): dead
AsPc-1 cells dead/alive ([22]; Compound 11 0.390625 μM + Gemcitabine 0.390625 μM): dead
AsPc-1 cells dead/alive ([22]; Compound 11 0.78125 μM + Gemcitabine 0.024414 μM): alive
AsPc-1 cells dead/alive ([22]; Compound 11 0.78125 μM + Gemcitabine 0.048828 μM): alive
AsPc-1 cells dead/alive ([22]; Compound 11 0.78125 μM + Gemcitabine 0.097656 μM): dead
AsPc-1 cells dead/alive ([22]; Compound 11 0.78125 μM + Gemcitabine 0.195313 μM): dead
AsPc-1 cells dead/alive ([22]; Compound 11 0.78125 μM + Gemcitabine 0.390625 μM): dead
